Data reported in patent US12187703B2, “Crystalline forms of N-(3-(2-(2-hydroxyethoxy)-6-morpholinopyridin-4-yl)-4-methvlphenyl)-2 (trifluoromethyl)isonicotinamide as Raf inhibitors for the treatment of cancer” (NOVARTIS AG, priority 2019, dated 2025).
Several values for one entry are separate records, joined by “and”; a condition that tells them apart may be missing. Equal values may be shown once. Read-outs that look alike come from different tables or passages of the source.

Legend:
Type in all cases: physicochemical
[1] = Hygroscopicity, storage and solubility conclusions
Text: The term “non-hygroscopic” as used herein refers to a compound showing a water uptake of at most 2 w-% in the sorption cycle when measured with GMS (or DVS) at a relative humidity in the range of from 0 to 95% RH and a temperature of (25.0±0.1) ° C., based on the weight of the compound. Non-hygroscopic is preferably up to 0.2%.

[2] = Stability testing, solid state bulk (UPLC, color, XRPD, TGA); details: for Degradation Products (DP), UPLC / TGA (%) Weight loss at 175° C. / XRPD: solid state
Description: (§1) X-ray powder diffraction (XRPD) analysis of all polymorph forms was performed using a Bruker D8 Discover x-ray diffractometer with XYZ stage. Measurements were taken at about 40 kV and 1 mA under the following conditions:
(§2) Crystalline Monohydrate Form HA was analysed by thermogravimetric analysis (TGA) using a Discovery Thermogravimetric Analysis Calorimeter from TA instruments under the following conditions (see Table 6).
(§3) No notable change in chemical purity, nor change in XRPD, nor change in TGA, was observed.

[3] = Particle size distribution by Fraunhofer light diffraction
Description: (§4) Pilot manufacture batches producing Modification HA and Form A on kilogram scale were compared for their respective bulk powder properties. The particle size distribution (PSD) was determined according to the corresponding method for release. Other measurements were performed using technical methods known in the art or as described herein.
A few drops of the dispersing aid were added to an appropriate amount of test substance. The mixture was mixed intensively, e.g. on a vortex mixer, in order to wet the substance thoroughly and to form a smooth and homogeneous paste. The resultant paste was diluted with the dispersion liquid to a final volume of 3-6 ml and the dispersion mixed again. The cumulative volume distribution was determined using a laser light diffraction instrument as stated above. The parameters could be adjusted accordingly so that the test dispersion is representative, homogeneous and well dispersed.
Particle sizes were determined at the undersize values of 10%, 50% and 90% (×10, ×50, ×90), and additional values in question, from the cumulative volume distribution.

[4] = Bulk density and flowability with ring shear tester
Description: as §4

[5] = Stability testing, solid state bulk (UPLC, color, XRPD, TGA); design: key: A: No change of color; details: solid state
Description: as §1, §2, §3

[6] = Behaviour under compression, grinding and granulation with water
[7] = Solubility at 25° C., 24 hours slurry; details: for Solubility / solubility at 24 h: approx. at 25° C., target concentration 10 mg/mL; for Final pH / XRPD of solid after equilibration: 25° C.; for solubility at 24 h: 25 °C, thermodynamic from solid, read-out: Solubility
Description: A sample was weighed in a glass vial and solvent added to make a slurry followed by stirring or shaking at 25° C. for 24 hours. The amount of sample and solvents depends on the target concentration, e.g. if the target concentration is 10 mg/mL, the weight of the sample should be 10 mg and the amount of solvent volume should be 1 mL. The solid and liquid are separated by centrifugation at 13000 rpm for 2 minutes with 0.2 μm membrane. The filtrate is then used for the solubility test after appropriate dilution. The diluent is from the UPLC method. The solids obtained after equilibration were analyzed by XRPD after being dried at 40° C. under vacuum for 2 hours. DSC/TGA analysis was conducted for selected samples.

[8] = 1 week/80° C., glass vials with screw caps
[9] = 1 week/80° C./75% RH, open bottles
[10] = 2 weeks/50° C., glass vials with screw caps
[11] = 2 weeks/50° C./75% RH, open bottles
[12] = 2 weeks/80° C., glass vials with screw caps
[13] = 2 weeks/80° C./75% RH, open bottles
[14] = 3 months/40° C./75% RH, open bottles
[15] = 4 weeks/50° C., glass vials with screw caps
[16] = 4 weeks/50° C./75% RH, open bottles
[17] = Xenon light (approx. 1200 kLuxh)
[18] = pilot manufacture batch, kilogram scale

Cc1ccc(NC(=O)c2ccnc(C(F)(F)F)c2)cc1-c1cc(OCCO)nc(N2CCOCC2)c1 [Monohydrate HA, N-(3-(2-(2-hydroxyethoxy)-6-morpholinopyridin-4-yl)-4-methylphenyl)-2-(trifluoromethyl)isonicotinamide]
Solubility, overall rating [1]: adequate solubility | Stability when stored in bulk quantities [1]: stable when stored in bulk quantities | Hygroscopicity ([1]; non-hygroscopic defined as water uptake at most 2 w-%, 0 to 95% RH, 25° C. (GMS/DVS)): non-hygroscopic | Stability upon light exposure ([2]; 1200 kLuxh for 12 h): stable upon light exposure | Degradation Products (DP), UPLC [2, 8]: 0.27% | TGA (%) Weight loss at 175° C. [2, 8]: 3.60% and 3.56% | XRPD [2, 8]: No change | Degradation Products (DP), UPLC [2, 9]: 0.30% and 0.26% | TGA (%) Weight loss at 175° C. [2, 9]: 3.76% and 3.86% | XRPD [2, 9]: No change | Degradation Products (DP), UPLC [2, 10]: 0.29% and 0.33% | TGA (%) Weight loss at 175° C. [2, 10]: 3.76% and 3.89% | XRPD [2, 10]: No change | Degradation Products (DP), UPLC [2, 11]: 0.27% and 0.25% | TGA (%) Weight loss at 175° C. [2, 11]: 3.66% and 3.65% | XRPD [2, 11]: No change | Degradation Products (DP), UPLC [2, 12]: 0.29% | TGA (%) Weight loss at 175° C. [2, 12]: 3.67% and 3.76% | XRPD [2, 12]: No change | Degradation Products (DP), UPLC [2, 13]: 0.26% and 0.28% | TGA (%) Weight loss at 175° C. [2, 13]: 3.60% and 3.66% | XRPD [2, 13]: No change | Degradation Products (DP), UPLC [2, 14]: 0.53% and 0.30% | TGA (%) Weight loss at 175° C. [2, 14]: 3.55% and 3.60% | XRPD [2, 14]: No change | Degradation Products (DP), UPLC [2, 15]: 0.28% and 0.27% | TGA (%) Weight loss at 175° C. [2, 15]: 3.75% and 3.63% | XRPD [2, 15]: No change | Degradation Products (DP), UPLC [2, 16]: 0.30% and 0.27% | TGA (%) Weight loss at 175° C. [2, 16]: 3.78% and 3.69% | XRPD [2, 16]: No change | Degradation Products (DP), UPLC [2, 17]: 0.36% and 0.30% | TGA (%) Weight loss at 175° C. [2, 17]: 3.76% and 3.90% | XRPD [2, 17]: No change | Stability in bulk ([2]; up to 80° C. over an extended period of time, no notable change in chemical purity, XRPD, TGA): highly stable in bulk | Factor of diameter X10, Monohydrate HA vs. Modification A ([3]; 131 μm vs. 2 μm): > 10 | Diameter X of PSD measured during release, X50 [3, 18]: X50: 277 μm | Diameter X of PSD measured during release, X90 [3, 18]: X90: 414 μm | Factor of bulk density, Monohydrate HA versus Modification A ([4]; 696 kg/m^3 versus 71 kg/m^3): ~10 | Bulk flowability with ring shear tester, rating in words ([4]; under 1250 Pa normal stress): “free flowing” | Technical measurement of bulk flowability with ring shear tester ([4]; under 1250 Pa normal stress): 13.7 | Technical measurement of bulk density with ring shear tester ([4]; under no consolidation stress): 696 kg/m^3 | Color (CL) [5, 8]: A | Color (CL) [5, 9]: A | Color (CL) [5, 10]: A | Color (CL) [5, 11]: A | Color (CL) [5, 12]: A | Color (CL) [5, 13]: A | Color (CL) [5, 14]: A | Color (CL) [5, 15]: A | Color (CL) [5, 16]: A | Color (CL) [5, 17]: A | Stability upon compression, grinding and wet granulation with water [6]: stable upon compression, grinding and wet granulation with water | Solubility ([7]; FaSSIF (pH 6.5), LOQ = 0.002517 mg/mL): LOQ | Final pH ([7]; FaSSIF, pH 6.5): 6.44 | XRPD of solid after equilibration ([7]; FaSSIF, pH 6.5): No change | solubility at 24 h ([7]; FeSSIF, pH 5.8, fessif, FeSSIF (pH 5.8), LOQ = 0.002517 mg/mL): 3.2 µg/mL | Final pH ([7]; FeSSIF, pH 5.8): 5.69 | XRPD of solid after equilibration ([7]; FeSSIF, pH 5.8): No change | Final pH ([7]; SGF (pH 2)): 2.07 | XRPD of solid after equilibration ([7]; SGF (pH 2)): No change | solubility at 24 h ([7]; SGF, pH 2, simulated gastric fluid, SGF (pH 2), LOQ = 0.002517 mg/mL): 2.2 µg/mL | Final pH ([7]; Water): 7.22 | XRPD of solid after equilibration ([7]; Water): No change | Solubility ([7]; Water, LOQ = 0.002517 mg/mL): LOQ | solubility at 24 h ([7]; acetonitrile, organic solvent or mixture, Acetonitrile): > 10000 µg/mL | solubility at 24 h ([7]; dichloromethane, organic solvent or mixture, Dichloromethane): > 10000 µg/mL | solubility at 24 h ([7]; ethanol abs., organic solvent or mixture, Ethanol abs.): > 10000 µg/mL | solubility at 24 h ([7]; ethyl acetate, organic solvent or mixture, Ethyl acetate): > 10000 µg/mL | solubility at 24 h ([7]; methanol, organic solvent or mixture, Methanol): > 10000 µg/mL | solubility at 24 h ([7]; octanol, organic solvent or mixture, Octanol): > 10000 µg/mL | Final pH ([7]; pH 1 (0.1N HCl)): 1.06 | XRPD of solid after equilibration ([7]; pH 1 (0.1N HCl)): No change | Solubility ([7]; pH 1 (0.1N HCl), LOQ = 0.002517 mg/mL): LOQ | Final pH ([7]; pH 2 (0.01N HCl)): 2.12 | XRPD of solid after equilibration ([7]; pH 2 (0.01N HCl)): No change | Solubility ([7]; pH 2 (0.01N HCl), LOQ = 0.002517 mg/mL): LOQ | Final pH ([7]; pH 4.7 acetate buffer): 4.73 | XRPD of solid after equilibration ([7]; pH 4.7 acetate buffer): No change | Solubility ([7]; pH 4.7 acetate buffer, LOQ = 0.002517 mg/mL): LOQ | Final pH ([7]; pH 6.8 phosphate buffer): 6.74 | XRPD of solid after equilibration ([7]; pH 6.8 phosphate buffer): No change | Solubility ([7]; pH 6.8 phosphate buffer, LOQ = 0.002517 mg/mL): LOQ | Final pH ([7]; pH 9.0 borate buffer): 8.88 | XRPD of solid after equilibration ([7]; pH 9.0 borate buffer): No change | Solubility ([7]; pH 9.0 borate buffer, LOQ = 0.002517 mg/mL): LOQ
